Read-outs that look alike come from different tables or passages of the source.

One data set can be described thus: log p determination. The format is physicochemical.
A further data set relates to Plasmopara vilicola. Kind of data set: Plasmopara test (grapevine) / protective. The format is in vivo. The note with it: 144 h, application rate 100 g/ha, evaluation 6 days after inoculation, read-out: Efficacy in %. On the procedure:
(§1) Solvent: 47 parts by weight of acetone
(§2) Emulsifier: 3 parts by weight of alkylaryl polyglycol ether
(§3) To produce a suitable preparation of active compound, 1 part by weight of active compound is mixed with the stated amounts of solvent and emulsifier, and the concentrate is diluted with water to the desired concentration.
To test for the protective activity, young plants are sprayed with the preparation of active compound at the stated application rate. After the spray coating has dried on, the plants are inoculated with an aqueous spore suspension of Plasmopara vilicola and then remain in an incubation cabin at about 20° C. and 100% relative atmospheric humidity for 1 day. The plants are then placed in a greenhouse at about 21° C. and about 90% relative atmospheric humidity for 5 days. The plants are then moistened and placed in an incubation cabin for 1 day.
Evaluation is carried out 6 days after the inoculation. 0% means an efficacy which corresponds to that of the control, whereas an efficacy of 100% means that no infection is observed.

The test system of another data set is Podosphaera leucotricha. Kind of data set: Podosphaera test (apple) / protective. The format is in vivo. The note with it: application rate 100 g/ha, evaluation 10 days after inoculation. The protocol: as §1, §2, §3
To test for protective activity, young plants are sprayed with the preparation of active compound at the stated application rate. After the spray coating has dried on, the plants are inoculated with an aqueous spore suspension of the causative organism of apple mildew Podosphaera leucotricha. The plants are then placed in a greenhouse at about 23° C. and a relative atmospheric humidity of about 70%.
Evaluation is carried out 10 days after the inoculation. 0% means an efficacy which corresponds to that of the control, whereas an efficacy of 100% means that no infection is observed.

Data set [1] concerns larvae of the mustard beetle (Phaedon cochleariae). Kind of data set: Phaedon larvae test. Format: in vivo. Particulars: 168 h, concentration of active compound 0.1 %, cabbage leaves dipped, after 7 d, read-out: Kill rate in % after 7 d. On the procedure: Solvent: 7 parts by weight of dimethylformamide Emulsifier: 1 part by weight of alkylaryl polyglycol ether To produce a suitable preparation of active compound, 1 part by weight of active compound is mixed with the stated amount of solvent and the stated amount of emulsifier, and the concentrate is diluted with water to the desired concentration. Cabbage leaves (Brassica oleracea) are treated by being dipped into the preparation of active compound and are populated with larvae of the mustard beetle (Phaedon cochleariae) while the leaves are still moist.

The test system of data set [2] is larvae of the green rice leafhopper (Nephotettix cincticeps). Kind of data set: Nephotettix test. The format is in vivo. Particulars: concentration of active compound 0.1 %, rice seedlings dipped. On the procedure:
(§4) Solvent: 7 parts by weight of dimethylformamide
(§5) Emulsifier: 1 part by weight of alkylaryl polyglycol ether
(§6) To produce a suitable preparation of active compound, 1 part by weight of active compound is mixed with the stated amount of solvent and the stated amount of emulsifier, and the concentrate is diluted with water to the desired concentration.
Rice seedlings (Oryza sativa) are treated by being dipped into the preparation of active compound of the desired concentration and are populated with larvae of the green rice leafhopper (Nephotettix cincticeps) while the seedlings are still moist.
After the desired period of time, the kill in % is determined. 100% means that all leaf hoppers have been killed; 0% means that none of the leaf hoppers have been killed.

The test system of data set [3] is greenhouse red spider mite (Tetranychus urticae). Kind of data set: Tetranychus test (OP-resistant/dip treatment). The format is in vivo. Particulars: concentration of active compound 0.01 %, bean plants dipped, OP-resistant. On the procedure: as §4, §5
To produce a suitable preparation of active compound, 1 part by weight of active compound is mixed with the stated amount of solvent and the stated amount of emulsifier, and the concentrate is diluted with emulsifier-containing water to the desired concentrations.
Bean plants (Phaseolus vulgaris) which are heavily infested by all stages of the greenhouse red spider mite (Tetranychus urticae) are dipped into a preparation of active compound of the desired concentration.
After the desired period of time, the effect in % is determined. 100% means that all spider mites have been killed; 0% means that none of the spider mites have been killed.

Data set [4] deals with caterpillars of the army worm Spodoptera frugiperda. Kind of data set: Spodoptera frugiperda test. The format is in vivo. The note with it: concentration of active compound 0.1 %, cabbage leaves dipped. On the procedure: as §4, §5, §6
Cabbage leaves (Brassica oleracea) are treated by being dipped into the preparation of active compound of the desired concentration and are populated with caterpillars of the army worm Spodoptera frugiperda while the leaves are still moist.
After the desired period of time, the effect in % is determined. 100% means that all caterpillars have been killed; 0% means that none of the caterpillars have been killed.

Data set [5] relates to Erysiphe graminis f.sp. tritici. Kind of data set: Erysiphe test (wheat) / protective. Format: in vivo. The note with it: evaluation 7 days after inoculation. On the procedure: Solvent: 25 parts by weight of N,N-dimethylacetamide
Emulsifier: 0.6 part by weight of alkylaryl polyglycol ether
as §3
To test for protective activity, young plants are sprayed with the preparation of active compound at the stated application rate.
After the spray coating has dried on, the plants are dusted with spores von Erysiphe graminis f.sp. tritici.
The plants are placed in a greenhouse at a temperature of about 20° C. and a relative atmospheric humidity of about 80% to promote the development of mildew pustules.
Evaluation is carried out 7 days after the inoculation. 0% means an efficacy which corresponds to that of the control, whereas an efficacy of 100% means that no infection is observed.

[6] abbreviates: acidic, isomer mixtures, the higher log p value is stated, Table 13, read-out: log p (acidic).
Setting [7] is: pH 2.3, pH 2.3, for Example 1 two values for the two isomers, read-out: log p (pH 2.3).

With `Cc1nsc(NC(=O)Cc2ccc(C3(C)OCC(c4cccc(Cl)c4)O3)cc2)c1Cl` (centres unmarked) [Example 15], the logP in the data set “log p determination” (setting [6]) was determined as 4.32. Besides, the pest or weed control at 100 g/ha in the data set with Plasmopara vilicola turned out to be 97%.
Regarding `Cc1nsc(NC(=O)Cc2ccc(C3(C)OCC(COc4ccc(Cl)cc4)O3)cc2)c1Cl` (centres unmarked) [Example 9], in the data set “log p determination” (setting [6]), the logP was found to be 4.24. For the same molecule, the Efficacy in % in the data set with Podosphaera leucotricha is 97%. Further, the pest or weed control at 0.1 % in data set [1] came out at 100%. In addition, the pest or weed control at 100 g/ha in the data set with Plasmopara vilicola is 100%.
For the molecule `Cc1nsc(NC(=O)Cc2ccc(C3(C)OCC(CCl)O3)cc2)c1Cl` (centres unmarked) [Example 6], in “log p determination” (setting [6]), the logP was determined as 3.09. In [1], the pest or weed control at 0.1 % came to 100%. Further, the “Kill rate in % after 6 d” value in [2] is 100%. The pest or weed control at 100 g/ha in the data set with Plasmopara vilicola came out at 100%.
Usually melting point stands for the temperature, or range, at which the solid turns liquid. Regarding `CC(=O)c1cccc(CC(=O)Nc2snc(C)c2Cl)c1` [Example 31, 5-[3-(acetylphenyl)-acetaminol]-4-chloro-3-methyl-isothiazole], the melting point lay within 77 to 83 °C. Also, in “log p determination” (setting [7]), the logP worked out at 2.14.
Take `Cc1nsc(NC(=O)Cc2ccc(C3(C)OCC(C(C)(C)C)O3)cc2)c1Cl` (centres unmarked) [Example 5]: in the data set “log p determination” (setting [6]), the logP is 4. For the same molecule, the “Kill rate in % after 7 d” value in [3] stood at 100%. Further, the “Kill rate in % after 6 d” value in data set [2] was determined as 100%.
`CCCCCCCCC1COC(C)(c2ccc(CC(=O)Nc3snc(C)c3Cl)cc2)O1` (centres unmarked) [Example 1]: the logP in “log p determination” (setting [7]) turned out to be 5.84. The “log p (pH 2.3)” value in the data set “log p determination” (pH 2.3, for Example 1 two values for the two isomers) was 6.05. Also, the pest or weed control at 0.1 % in [1] was found to be 100%.
`CCc1nsc(NC(=O)Cc2cccc(C(C)=O)c2)n1` [Example 30] showed a melting point of 121 to 125 °C. In addition, the logP in “log p determination” (setting [7]) turned out to be 1.87.
In the case of `Cc1nsc(NC(=O)Cc2ccc(C3(C)OCC(c4ccc(Cl)c(Cl)c4)O3)cc2)c1Cl` (centres unmarked) [Example 16], the logP in “log p determination” (setting [6]) came out at 4.82. For the same molecule, in data set [1], the pest or weed control at 0.1 % turned out to be 100%.
On to `Cc1nsc(NC(=O)Cc2ccc(C3(C)OCC(c4ccccc4)O3)cc2)c1Cl` (centres unmarked) [Example 3], for which the logP in “log p determination” (setting [6]) was 3.83. This molecule displayed an Efficacy in % in the data set with Podosphaera leucotricha of 99%. The pest or weed control at 0.1 % in data set [1] was 100%. In data set [3], the “Kill rate in % after 7 d” value is recorded as 100%. The pest or weed control at 100 g/ha with Plasmopara vilicola is 99%.
As to `Cc1nsc(NC(=O)Cc2ccc(C3(C)OCC(c4ccc(Cl)cc4)O3)cc2)c1Cl` (centres unmarked) [Example 17], in “log p determination” (setting [6]), the logP was 4.35. This molecule also gave an Efficacy in % in the data set with Podosphaera leucotricha of 99%. For the same molecule, the pest or weed control at 0.1 % in [1] worked out at 100%. The pest or weed control at 100 g/ha in the data set with Plasmopara vilicola came to 97%. For the same molecule, the “Kill rate in % after 7 d” value in [4] was determined as 100%.
Take `Cc1nsc(NC(=O)Cc2ccc(C3(C)OCC(CBr)(CBr)CO3)cc2)c1Cl` [Example 20]: the logP in “log p determination” (setting [6]) was found to be 4.21. In addition, in data set [2], the “Kill rate in % after 6 d” value turned out to be 100%. For the same molecule, the pest or weed control at 100 g/ha with Plasmopara vilicola is 96%. For the same molecule, the “Kill rate in % after 7 d” value in data set [4] was found to be 100%.
On to `C=CCOCC1COC(C)(c2ccc(CC(=O)Nc3snc(C)c3Cl)cc2)O1` (centres unmarked) [Example 4], for which, in “log p determination” (setting [6]), the logP was determined as 3.23. Further, the “Kill rate in % after 7 d” value in [3] is 100%. Further, the pest or weed control at 100 g/ha in the data set on Plasmopara vilicola stood at 100%.
Regarding `CC(=O)c1ccc(CC(=O)Nc2snc(C)c2Cl)cc1`, the logP in “log p determination” (setting [7]) amounted to 2.12.
Consider `CCC1COC(C)(c2ccc(CC(=O)Nc3snc(C)c3Cl)cc2)O1` (centres unmarked) [Example 7], for which the logP in “log p determination” (setting [6]) was determined as 3.23. Also, the Efficacy in % in the data set on Podosphaera leucotricha came to 97%; in [5] (application rate 1000 g/ha), 81%. For the same molecule, the pest or weed control at 0.1 % in data set [1] was 100%. For the same molecule, the “Kill rate in % after 6 d” value in data set [2] amounted to 100%. The pest or weed control at 100 g/ha in the data set on Plasmopara vilicola came to 100%. Further, the “Kill rate in % after 7 d” value in data set [4] is listed as 100%.
`CC(=O)c1cccc(CC(=O)Nc2nc(C)ns2)c1` [Example 29, 5-[3(-acetylphenyl)acetaminol]-3-methyl-1,2,4-thiadiazole] came in with a melting point of 91 to 98 °C. Moreover, in the data set “log p determination” (setting [7]), the logP worked out at 1.56.
Take `CC=CCCCC1COC(C)(c2ccc(CC(=O)Nc3snc(C)c3Cl)cc2)O1` (centres unmarked) [Example 8]: in the data set “log p determination” (setting [6]), the logP came to 4.4. Moreover, the Efficacy in % is on record as 95% with Podosphaera leucotricha and 81% in data set [5] (application rate 500 g/ha). The pest or weed control at 0.1 % in [1] came out at 100%. The “Kill rate in % after 7 d” value in data set [3] and in data set [4] was 100% in each case. Further, the pest or weed control at 100 g/ha in the data set on Plasmopara vilicola was 97%.

Source of the values: patent US6403622B1, “Phenylacetic acid heterocyclyl amides having an insecticidal effect” (Bayer Aktiengesellschaft, priority 1998, dated 2002).
